In publication PMC7057333 (ACS Omega, 2020):
Like-named read-outs stand apart in the source and are kept apart here. Ends that are not written are not given here.

How the values were obtained:
LSD1 [1] = biological target: T1, LSD1 (Homo sapiens, UniProt O60341); test: HRP-coupled fluorescence LSD1 demethylation activity and inhibition assay, substrate H3_1-21 K4(Me); type: biochemical
T1 construct: made in house; host or cells: Escherichia coli Rosetta 2 (pET15b)

LSD1 [2] = biological target: T1, LSD1; test: SPR biosensor interaction kinetic assay with immobilized LSD1 (15 °C, TBS-T with DTT); type: binding
[3] = 100 μM, supplement sheet SMILES and Activity, read-out: Inhibition at 100 μM (%)

Compound: CSCC[C@H](NC(=O)[C@@H](NC(=O)[C@H](CCCNC(=N)N)NC(=O)[C@H](C)N)[C@@H](C)O)C(=O)N[C@@H](CCC(N)=O)C(=O)N[C@H](C(=O)N[C@@H](C)C(=O)N[C@@H](CCCNC(=N)N)C(=O)N[C@@H](CCCCN)C(=O)N[C@@H](CO)C(=O)N[C@H](C(=O)O)[C@@H](C)O)[C@@H](C)O [Peptide 4]
- IC50 (LSD1 [1]): > 100 µM
- Kd (LSD1 [2]; KD, SPR, immobilized LSD1, 15 °C, ni = no interaction observed, ns = high nonspecific binding, weak interactions only approximated, highest concentration 200 μM): ~140 µM

Compound: C[C@H](N)C(=O)N[C@@H](CCCNC(=N)N)C(=O)N[C@H](C(=O)N[C@@H](CCCCN)C(=O)N[C@@H](CCC(N)=O)C(=O)N[C@H](C(=O)N[C@@H](C)C(=O)N[C@@H](CCCNC(=N)N)C(=O)N[C@@H](CCCCN)C(=O)N[C@@H](CO)C(=O)N[C@H](C(N)=O)[C@@H](C)O)[C@@H](C)O)[C@@H](C)O [Peptide 9]
- Kd (LSD1 [2]): > 100 µM

Compound: CCCC[C@H](NC(=O)[C@@H](NC(=O)[C@H](CCCNC(=N)N)NC(=O)[C@H](C)N)[C@@H](C)O)C(=O)N[C@@H](CCC(N)=O)C(=O)N[C@H](C(=O)N[C@@H](C)C(=O)N[C@@H](CCCNC(=N)N)C(=O)N[C@@H](CCCCN)C(=O)N[C@@H](CO)C(=O)N[C@H](C(N)=O)[C@@H](C)O)[C@@H](C)O [Peptide 15, ART(Nle)QTARKST-NH2]
- Kd (LSD1 [2]): > 200 µM

Compound: CCCCCC[C@H](NC(=O)[C@@H](NC(=O)[C@H](CCCNC(=N)N)NC(=O)[C@H](C)N)[C@@H](C)O)C(=O)N[C@@H](CCC(N)=O)C(=O)N[C@H](C(=O)N[C@@H](C)C(=O)N[C@@H](CCCNC(=N)N)C(=O)N[C@@H](CCCCN)C(=O)N[C@@H](CO)C(=O)N[C@H](C(N)=O)[C@@H](C)O)[C@@H](C)O [Peptide 16, ART(Aoc)QTARKST-NH2]
- Kd (LSD1 [2]): > 200 µM

Compound: C[C@H](N)C(=O)N[C@@H](CCCNC(=N)N)C(=O)N[C@H](C(=O)N[C@@H](CCc1ccccc1)C(=O)N[C@@H](CCC(N)=O)C(=O)N[C@H](C(=O)N[C@@H](C)C(=O)N[C@@H](CCCNC(=N)N)C(=O)N[C@@H](CCCCN)C(=O)N[C@@H](CO)C(=O)N[C@H](C(N)=O)[C@@H](C)O)[C@@H](C)O)[C@@H](C)O [Peptide 17, ART(homoPhe)QTARKST-NH2]
- Kd (LSD1 [2]): > 200 µM

Compound: CSCC[C@@H]1NC(=O)[C@@H](NC(=O)[C@H](CCCNC(=N)N)NC(=O)[C@H](C)N)C/C=C\C[C@@H](C(=O)N[C@@H](C)C(=O)N[C@@H](CCCNC(=N)N)C(=O)N[C@@H](CCCCN)C(=O)N[C@@H](CO)C(=O)N[C@H](C(N)=O)[C@@H](C)O)NC(=O)[C@H](CCC(N)=O)NC1=O [Peptide 21, ARG^alyMQG^alyARKST-NH2]
- inhibition at 100 µM (LSD1 [1]; [3]): 95%
- inhibition at 100 µM (LSD1 [1]; read-out: % inhibition at 100 μM): 95%
- Kd (LSD1 [2]): > 100 µM

Compound: ARTMQTA-OH [Peptide 6, ARTMQTA-OH]
- Kd (LSD1 [2]): > 200 µM

Compound: PRTMQTARKST-NH2 [Peptide 11]
- Ki (LSD1 [1]): 8 µM
- inhibition at 100 µM (LSD1 [1]; [3]): 93%
- mode of inhibition (LSD1 [1]; enzyme activity assay, inhibition kinetics): competitive inhibitor
- IC50 (LSD1 [1]; supplement sheet SMILES and Activity, read-out: IC50): 12.5 µM
- Kd (LSD1 [2]): 10 µM
